Measured values reported in patent publication US20190167711A1, “METHODS FOR DIAGNOSIS AND TREATMENT OF ACUTE LYMPHOBLASTIC LEUKEMIA” (MOR RESEARCH APPLICATIONS LTD., priority 2014, published 2019).

How the values were obtained:
NAMPT = experiment: Western blot of NAMPT in transfected NALM-6 cells; type: cell-based; details: NALM-6 transient
Text: Protein was extracted from NALM-6 cell line using Qproteome™ lysis buffer (Qiagen, Hilden, Germany). The membrane was then probed with one or more of the following antibodies: anti-disintegrin and metalloproteinase domain-containing protein 10 (ADAM10) (1:1000) (Abcam; Cambridge, UK) (see Example 9); anti-chemokine C-X-C motif 16 (CXCL16) (1:1000); anti-NAMPT (1:1000); and anti-GAPDH (1:5000) (Santa Crus Biotechnology, Santa Crus, Calif., USA) (see Examples 5 and 9). The secondary antibodies were goat anti-mouse and goat anti-rabbit (1:10,000) (Sigma®, Saint Louis, Mo., USA), for each antigen according to the manufacturer's instructions. […]
Intensity of the protein band was measured using an in-house program. […]
Possible miR-451 targets were evaluated using several open access software programs (e.g., Targetscan, PicTar, miRanda, miRDB). […] In the first screening, the suppression of ADAM10, CXCL16 and NAMPT protein level was analyzed in NALM-6 cells transiently expressing miR-451 mimic (SEQ ID NO: 2) and in cells transiently expressing scrambled-miR (universal sequence; negative control) by Western blot as described in Materials and Methods. […]

Nalm-6 cells [1] = experiment: Tumor growth of transfected Nalm-6 cells injected s.c. into NOD/SCID mice; type: in vivo
Text: As described herein, decreased expression of miR-451 in comparison to a control level can serve as a prognostic factor for ALL relapse risk, as low expression of miR-451 at first diagnosis predicts worse outcome. […] Scrambled miRNA-transfected cells served as negative control (Nalm-6/miR-NC). Quantitative reverse transcription PCR (RT-qPCR) was used to confirm miR-451 expression in the transfected cells.
To further study the putative tumor-suppressive function of hsa-miR-451 in vivo, 10^7 viable Nalm-6 cells either untransfected, transfected in vitro with miR-451 mimic, or transfected with scrambled miR (control), were injected sub-cutaneously (s.c.) into the right flanks of 6-week-old female NOD/SCID mice. […] On day 26, the median tumor volume in the scrambled control mice and the miR-451 mimic mice were 204.69 mm^3 (SE=63.96) and 23.32 mm^3 (SE=13.12), respectively (p=0.019). At the end of the experiment, mice were sacrificed, and the tumors were weighted. The median tumor weight in the scrambled control mice and the miR-451 mimic mice were 0.0966 gr (SE=0.040) and 0.0159 gr (SE=0.0009), respectively (p=0.046) (FIG. 4C).

Nalm-6 cells [2] = experiment: Annexin V-FITC apoptosis assay in Nalm-6 cells; type: cell-based; details: NALM-6 cells, transient expression
Text: Cells were stained with annexin V-fluorescein-5-isothiocyanate (FITC) conjugated antibody and propidium iodide (PI) using the Annexin V-FITC Apoptosis Detection Kit (ab14085, Abcam® Incorporated, Cambridge, Mass., USA) according to manufacturer's instructions (see, for example, https://www.abcam.com/ps/products/14/ab14085/documents/ab14085%20Annexin %20V%20FITC%20Apoptosis%20Detection%20Kit%20v4%20(website).pdf), and read on the flow cytometer. Annexin V Apoptosis Detection Kit is based on the observation that soon after initiating apoptosis, cells translocate the membrane phosphatidylserine (PS) from the inner face of the plasma membrane to the cell surface. Once on the cell surface, PS can be easily detected by staining with a fluorescent conjugate (e.g., FITC) of Annexin V, a protein that has a high affinity for PS. The one-step staining procedure takes only 10 minutes. When performing both Annexin V-FITC and PI staining, it is possible to differentiate apoptosis vs necrosis.
To measure the effect of NAD^+ depletion following FK866 treatment of Nalm-6 cells, apoptosis and viability were measured as described in Materials and Methods. Nalm-6 cells were treated for 48 hours with 1 nM FK866, and then apoptosis was measured using FACS.

NAMPT 3′-UTR = experiment: Luciferase reporter assay with NAMPT 3′-UTR; type: cell-based; details: after transfection
Text: To perform the reporter assay, the regulatory region of NAMPT is cloned […] of the Firefly luciferase gene in an expression vector, and the resulting recombinant vector, e.g., pLightSwitch 3′UTR, is transfected into cells along with an expression vector comprising the Renilla gene serving as reference. In accordance with some embodiments described herein, a target reporter vector containing the full-length wild type NAMPT 3′ untranslated region (3′-UTR) (pLightSwithch NAMPT 3′UTR) purchased from GeneCopoeia™ (Rockville, Md., USA) was co-transfected into NALM-6 cells along with Renilla luciferase vector as internal vector control. The NAMPT 3′-UTR contains miRNA response elements (MREs), to one of which miRNA-451 specifically binds. Twenty-four hours before transfection, NALM-6 cells were plated in 6 wells until 70% confluent. Two hundred (200) pmol miR-451 mimic, 200 pmol scrambled miR (both purchased from IDT®-Syntezza, Jerusalem, Israel) or 2 μg antagomiR-451 plasmid (GeneCopoeia™, Rockville, Md., USA) were transiently transfected into NALM-6 cells together with 2 μg pLightSwitch NAMPT 3′UTR and Renilla luciferase vector. […] Briefly, cells were collected, lysed to release all proteins (including the luciferase), luciferin was added along with all the necessary cofactors, and the enzymatic activity was quantitatively measured using a luminometer. […]

## miR-451 mimic: a dsmiR-451 designed to copy or mimic the functionality of mature endogenous miR-451 upon transfection (AAACCGUUACCAUUACUGAGUU; double-stranded mimic, further chemistry not given here; listed as Homo sapiens)
NAMPT
  NAMPT protein expression levels compared to scrambled-miR: reduced
Nalm-6 cells [1]; after 20 days
  tumor growth vs scrambled miR control cells: significantly decreased tumor growth
Nalm-6 cells [1]; day 26, 10^7 transfected Nalm-6 cells s.c., female NOD/SCID mice
  median tumor volume: 23.32 mm^3
Nalm-6 cells [1]; end of the experiment
  median tumor weight: 0.0159 gr
Nalm-6 cells [2]
  effect on apoptosis rate: No effect
NAMPT 3′-UTR
  relative luciferase activity of NAMPT 3′-UTR reporter decreased by: 80%
